Test results: ChEMBL document CHEMBL1132332, “A novel acetylated analogue of dynorphin A-(1-11) amide as a kappa-opioid receptor antagonist” (J Med Chem, 1999)
pKi: −log10 of the molar value. Square brackets hold non-standard residues; d marks the D form. Peptide text beside a SMILES is read from it.

Key:
Mu-type opioid receptor = Mu-type opioid receptor (Homo sapiens, UniProt P35372); assay: The compound was tested for binding affinity against Opioid receptor mu 1 by using [3H]DAMGO as a radioligand
Mu-type opioid receptor, sequence (P35372 whole entry): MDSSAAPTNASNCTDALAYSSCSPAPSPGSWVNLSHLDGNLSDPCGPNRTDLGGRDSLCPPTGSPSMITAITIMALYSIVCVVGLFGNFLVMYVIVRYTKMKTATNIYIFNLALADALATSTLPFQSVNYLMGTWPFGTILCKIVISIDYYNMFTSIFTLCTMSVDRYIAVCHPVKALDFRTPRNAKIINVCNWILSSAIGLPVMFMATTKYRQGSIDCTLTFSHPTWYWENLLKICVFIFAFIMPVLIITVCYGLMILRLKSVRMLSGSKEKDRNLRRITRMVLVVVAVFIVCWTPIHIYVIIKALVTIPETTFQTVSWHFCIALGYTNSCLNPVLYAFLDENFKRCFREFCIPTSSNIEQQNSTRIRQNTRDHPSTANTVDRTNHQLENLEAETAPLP

[1] = target: Delta-type opioid receptor (Homo sapiens, UniProt P41143); assay: The compound was tested for binding affinity against Opioid receptor delta 1 by using [3H]- DPDPE as a radioligand
Delta-type opioid receptor, sequence (P41143 whole entry): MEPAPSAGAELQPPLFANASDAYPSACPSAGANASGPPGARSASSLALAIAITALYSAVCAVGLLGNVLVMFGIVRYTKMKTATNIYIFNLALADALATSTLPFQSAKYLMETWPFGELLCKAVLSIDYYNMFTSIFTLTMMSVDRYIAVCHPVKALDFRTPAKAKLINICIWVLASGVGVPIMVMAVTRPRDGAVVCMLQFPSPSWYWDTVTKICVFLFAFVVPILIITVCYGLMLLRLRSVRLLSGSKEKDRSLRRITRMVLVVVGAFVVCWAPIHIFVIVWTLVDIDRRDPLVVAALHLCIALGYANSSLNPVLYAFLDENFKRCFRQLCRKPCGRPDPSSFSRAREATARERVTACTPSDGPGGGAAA

[2] = target: Kappa-type opioid receptor (Homo sapiens, UniProt P41145); assay: The compound was tested for binding affinity against Opioid receptor kappa 1 by using [3H]Diprenorphine as a radioligand
Kappa-type opioid receptor, sequence (P41145 whole entry): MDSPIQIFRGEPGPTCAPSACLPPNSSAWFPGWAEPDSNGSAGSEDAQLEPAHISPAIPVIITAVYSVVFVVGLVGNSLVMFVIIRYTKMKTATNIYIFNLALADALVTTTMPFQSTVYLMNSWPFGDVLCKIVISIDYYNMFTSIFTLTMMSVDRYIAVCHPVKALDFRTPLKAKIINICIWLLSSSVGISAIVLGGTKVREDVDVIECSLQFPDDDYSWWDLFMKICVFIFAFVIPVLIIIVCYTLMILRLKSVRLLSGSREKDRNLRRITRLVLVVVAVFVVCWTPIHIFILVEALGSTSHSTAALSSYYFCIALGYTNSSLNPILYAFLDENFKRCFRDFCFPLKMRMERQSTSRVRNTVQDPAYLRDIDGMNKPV

Compound | pKi (Mu-type opioid receptor) | pKi [1] | pKi [2]
CC(C)C[C@H](NC(=O)[C@H](Cc1ccccc1)NC(=O)CNC(=O)CNC(=O)[C@@H](N)Cc1ccc(O)cc1)C(=O)N[C@@H](CCCN=C(N)N)C(=O)N[C@@H](CCCN=C(N)N)C(=O)N[C@H](C)C(=O)N[C@@H](CCCN=C(N)N)C(=O)N1CCC[C@H]1C(=O)N[C@@H](CCCCN)C(N)=O | 8.71 | 7.91 | 9.72
CC(=O)N[C@@H](Cc1ccc(O)cc1)C(=O)N[C@@H](CCCCN)C(=O)N[C@@H](Cc1c[nH]c2ccccc12)C(=O)N[C@@H](Cc1c[nH]c2ccccc12)C(=O)N[C@@H](CC(C)C)C(=O)N[C@@H](CCCN=C(N)N)C(=O)N[C@@H](CCCN=C(N)N)C(=O)N[C@H](C)C(=O)N[C@@H](CCCN=C(N)N)C(=O)N1CCC[C@H]1C(=O)N[C@@H](CCCCN)C(N)=O (Ac-YKWWLRR[dA]RPK-NH2) | 6.60 | 5.27 | 7.70
CC(=O)N[C@@H](Cc1ccc(O)cc1)C(=O)N[C@@H](CCCCN)C(=O)N[C@@H](Cc1c[nH]c2ccccc12)C(=O)N[C@@H](Cc1c[nH]c2ccccc12)C(N)=O (Ac-YKWW-NH2) | 5.44 | 5.46 | 5.86
